Peptide text beside a SMILES is read from it.
How the values were obtained:
E. coli = test: PI uptake assay, flow cytometry; format: cell-based; conditions: 4× MIC, 2 h
Protocol: E. coli were mixed with different concentrations of MSI-1, incubated for 2 h, resuspended by PI solution (20 μg/ml), and ultimately subjected to flow cytometry for PI uptake assay. Calcein-loaded liposomes were prepared to imitate bacterial membrane. Serially diluted peptide was added into liposomes (1:1, v:v) after obtaining the fluorescence intensity at λex/λem=490/520 nm. Once MSI-1 addition, fluorescence intensity was detected at 0, 3, 5, 10, 15 and 20 min. Calcein release rate was calculated as previously described. To observe bacterial morphology, E. coli treated with MSI-1 (32 μg/ml) or PBS for 2 h was collected, fixed by 2.5% glutaraldehyde and subjected to scanning electron microscopy (SEM) assay (SUI510, Hitachi, Japan). In addition, E. coli were resuspended in reaction buffer (60 mM Na2HPO4^. 7H2O, 40 mM NaH2PO4^. H2O, 10 mM KCl, 1 mM MgSO4.7H2O, 0.27% 2-Mercaptoethanol), incubated with ONPG (2.5 mg/ml) and MSI-1 for 2 h. Bacteria envelope integrity was calculated by the percentage of O-nitrophenol production.

trypsin = test: in vitro; conditions: pH 8.2
Source text: Aliquots of the mixture were extracted periodically and diluted with water/acetonitrile (3:2, v:v) containing 2% TFA for HPLC detection or for antibacterial activity assay [18].

in vitro = conditions: mouse, 20% fresh mouse serum
Source text: At indicated time points, samples were denatured with equal volumes of 6 M urea and subjected to HPLC analysis or antibacterial activity evaluation.

[1] = 37 °C for up to 7 days, multigelation at -80 °C for 10 times or boiling at 100 °C for 1 h; HPLC and antibacterial activity
Protocol: MSI-1 were placed at 37 °C for 7 days, repeated multigelation at -80 °C for 10 times or boiled at 100 °C for 1 h, and then subjected to HPLC analysis or antibacterial activity evaluation as above.

HaCaT cells = test: Wound scratch assay; format: cell-based; conditions: cell scratch assay
Protocol: To further investigate whether MSI-1 could protect from bacterial infection of the skin, mice were anesthetized with pentobarbital sodium (50 mg/kg, i.p) and shaved on the dorsal surfaces. The depilated skin was secured with 2-cm-diameter plastic containers that filled up with boiling water at contact time 10 s. Afterwards, a full-thickness wound (2 cm in diameter) was cut on the burned skin of each mouse. Penicillin-resistant E. coli suspension (100 µl, 1× 10^10 CFU/ml) was slowly inoculated over wound with a pipette tip, and a gentle stream of air was aimed over the inoculation site until skin appeared wet but absent of any standing volume from the inoculum suspension. Two hours later, vehicle (3% CMC-Na), MSI-1 or polymyxin, which was suspended in sterile CMC-Na (3%) in PBS at concentration of 10, 5, 2.5 mg/ml (MSI-1) or 5 mg/ml (polymyxin), was inoculated on the same area with a pipette tip, 1 ml/kg, once a day (n=15 per group). Mice were fed in cages individually to avoid cross infection and were treated daily for 7 consecutive days. At 3rd and 7th days, cutaneous wound healing and bacteria counts in skin lesion were measured. Moreover, 12 h after the last treatment, blood samples were collected from the retro-orbital venous plexus under anesthesia (pentobarbital sodium, 50 mg/kg). […] The contents of TNF-α and IL-6 in skin homogenates and serum were measured by ELISA. […]

C57BL/6 mice = test: Acute toxicity in mice; format: in vivo; conditions: intraperitoneal, n=6/group
Protocol: C57BL/6 mice (n=6/group) were intraperitoneally injected with MSI-1 (0, 10, 20, 40, 80 and 100 mg/kg/body weight, respectively). Animals were inspected for adverse effects for 30 min, and survival was monitored for 12 h thereafter. The toxicity severity was classified as Malik U et al previously described.

[2] = system: penicillin resistant-E. coli isolates; test: Acute systemic E. coli infection in mice; format: in vivo, BALB/c mice; conditions: for survival rate enhanced compared with the model group: doses 10, 5 and 2.5 mg/kg
Protocol: BALB/c mice (5-6 weeks) were purchased from the Laboratory Animal Center of Yangzhou University (Yangzhou, Jiangsu, China) and intraperitoneally (ip) injected with 500 μl (5× 10^8 CFU/ml) of penicillin resistant-E. coli isolates. Mice in MSI-1 treated groups (10, 5 and 2.5 mg/kg, n=16/group) and polymyxin treated group (5 mg/kg) were administered after 2 h post bacterial inoculation. After 12 h, six mice in each group were anesthetized with pentobarbital sodium (50 mg/kg body weight, i.p) and euthanized by cervical dislocation to count bacterial colonies in blood, lung, spleen, kidney and liver. Lung homogenates were collected for Gram staining. Moreover, serum TNF-α and IL-6 were measured by ELISA kits. The procedure of H&E staining for mouse lung was adapted from a published report. The survival and weight of other mice were monitored daily up to 7 days.

[3] = system: P. aeruginosa (penicillin resistant, levofloxacin sensitive); test: Resistance study, serial passages; format: cell-based; conditions: serial passages at 1/4× MIC; ratio of MIC to that of first-time exposure
Protocol: (§1) P. aeruginosa and E. coli, which were penicillin resistant but levofloxacin sensitive strains, were exposed to MSI-1, polymyxin and levofloxacin for MIC determination. Resistance study was performed as described previously.

[4] = system: E. coli (penicillin resistant, levofloxacin sensitive); test: Resistance study, serial passages; format: cell-based; conditions: serial passages at 1/4× MIC; ratio of MIC to that of first-time exposure
Protocol: as §1

E. coli genomic DNA = test: Gel retardation assay, DNA binding; conditions: 15 min, 1% agarose gel
Protocol: Bacterial genomic DNA was obtained by a BacteriaGen DNA Kit and quantified by a Thermo Scientific NanoDrop™ 2000c Spectrophotometer. Bacterial genomic DNA samples were incubated with isovolumetric MSI-1 at room temperature for 15 min. The gel retardation assay for DNA shift was performed by 1% w/v agarose gel (pre-stained by SYBR Green I) electrophoresis. In UV spectroscopic study, different concentrations of peptide were titrated into genomic DNA (0.5 μg/ml). After 15 min to equilibrate, the UV spectra for DNA and MSI-1-DNA complex were recorded at wavelength range of 230-350 nm. In addition, DNA dissolved in Tris-HCl (pH 7.4, CDNA=0.1 mg/ml) was mixed with EB solution (5 μM). After 10 min incubation in the dark, the EB-DNA mixture was added with different concentrations of MSI-1. Thirty minutes later, the fluorescence spectra were recorded at excitation wavelength 535 nm to measure the competitive binding of MSI-1 and EB with bacterial DNA. […] Secondary structure change of E. coli DNA was analyzed. Moreover, the intracellular changes in E. coli morphology was observed by a JEOL 1230 transmission electron microscopy (TEM) after 2 h coincubation with MSI-1.

CC[C@H](C)[C@H](NC(=O)CN)C(=O)N[C@@H](Cc1c[nH]c2ccccc12)C(=O)N[C@@H](CCCCN)C(=O)N[C@@H](Cc1ccccc1)C(=O)N[C@@H](CC(C)C)C(=O)N[C@@H](CCCCN)C(=O)N[C@@H](CCCCN)C(=O)N[C@@H](C)C(=O)N[C@@H](CCCCN)C(=O)N[C@@H](CCCCN)C(=O)N[C@@H](Cc1ccccc1)C(=O)N[C@@H](Cc1c[nH]c2ccccc12)C(=O)N[C@@H](CCCCN)C(N)=O [MSI-1] (H-GIWKFLKKAKKFWK-NH2)
PI-positive rate (E. coli): 80.4% | remaining at 0.5 h (trypsin): < 10% | remaining at 0.5 h, 1.6 mg/ml (in vitro): 92.5% | remaining at 2 h, 1.6 mg/ml (in vitro): 53.5% | thermal stability [1]: maintained its structure and potent antimicrobial activity | migration of HaCaT cells (HaCaT cells): could not promote the migration | adverse events (C57BL/6 mice; 20 mg/kg): no immediate adverse events | adverse effects at approximately 5 min post injection (C57BL/6 mice; dose of peptide above 40 mg/kg): one mouse in the MS-1-treated group exhibited narrowing of the eyes | reduction in CFU (blood and organs) ([2]; 10 mg/kg, 12 h): approximately 2 log unit | decreased rates of serum IL-6 and TNF-α ([2]; 10 mg/kg, 12 h post-infection, ELISA): 70%~80% | body weight ([2]; 7 days, polymyxin 5 mg/kg): marked weight maintenance effect | survival rate enhanced compared with the model group ([2]; first of three values, given 2 h post inoculation, 7 days): 80% | survival rate enhanced compared with the model group ([2]; second of three values, 7 days): 50% | survival rate enhanced compared with the model group ([2]; third of three values, 7 days): 30% | relative MIC after 15 subcultures [3]: remained stable | relative MIC after 15 subcultures [4]: remained stable | dose at which the peptide bound to genomic DNA (E. coli genomic DNA; 1/4× MIC): 2 µg/mL | peptide concentration at which electrophoretic movement of DNA was completely inhibited (E. coli genomic DNA): higher than 4 μg/ml

Source: PMC6956804, “Potent antibacterial activity of MSI-1 derived from the magainin 2 peptide against drug-resistant bacteria” (Theranostics, 2020)
